US20160108008A1, “Substituted N-(Tetrazol-5-yl)- and N-(Triazol-5-yl)arylcarboxamide Compounds and Their Use as Herbicides” (BASF SE, priority 2013, published 2016)
Marks after values point to notes of the source that are not given here.

What was measured:
Format in all cases: in vivo
Abutilon theophrasti = assay: greenhouse post-emergence treatment, ABUTH; details: 1000 g/ha, scale 0-100
From the text: (§1) The culture containers used were plastic flowerpots containing loamy sand with approximately 3.0% of humus as the substrate. The seeds of the test plants were sown separately for each species.
(§2) For the post-emergence treatment, the test plants were first grown to a height of 3 to 15 cm, depending on the plant habit, and only then treated with the active ingredients which had been suspended or emulsified in water. For this purpose, the test plants were either sown directly and grown in the same containers, or they were first grown separately as seedlings and transplanted into the test containers a few days prior to treatment.
(§3) Depending on the species, the plants were kept at 10-25° C. or 20-35° C. The test period extended over 2 to 4 weeks. During this time, the plants were tended, and their response to the individual treatments was evaluated.
(§4) Evaluation was carried out using a scale from 0 to 100. 100 means no emergence of the plants, or complete destruction of at least the aerial moieties, and 0 means no damage, or normal course of growth. A good herbicidal activity is given at values of at least 70 and a very good herbicidal activity is given at values of at least 85.
(§5) The plants used in the greenhouse experiments belonged to the following species: […]

Echinochloa crus-galli [1] = assay: greenhouse post-emergence treatment, ECHCG; details: scale 0-100
From the text: as §1, §2, §3, §4
(§6) The plants used in the greenhouse experiments belonged to the following species:
(§7) Following representative compounds of formula I according to Table 9 were used in post-emergence treatments in greenhouse experiments (values labeled with * result from pre-emergence experiments): […]

Chenopodium album = assay: greenhouse post-emergence treatment, CHEAL; details: scale 0-100
From the text: as §1, §2, §3, §4, §6, §7

Setaria viridis = assay: greenhouse post-emergence treatment, SETVI; details: scale 0-100
From the text: as §1, §2, §3, §4, §5

Amaranthus retroflexus [2] = assay: greenhouse post-emergence treatment, AMARE; details: scale 0-100
From the text: as §1, §2, §3, §4, §6, §7

Alopecurus agrestis = assay: greenhouse post-emergence treatment, ALOMY; details: 250 g/ha, scale 0-100
From the text: as §1, §2, §3, §4, §5

Amaranthus retroflexus [3] = assay: greenhouse pre-emergence treatment, AMARE; details: pre-emergence (value labeled *), 1000 g/ha; scale 0-100
From the text: as §1
(§8) For the pre-emergence treatment, the active ingredients, which had been suspended or emulsified in water, were applied directly after sowing by means of finely distributing nozzles. The containers were irrigated gently to promote germination and growth and subsequently covered with transparent plastic hoods until the plants had rooted. This cover caused uniform germination of the test plants, unless this has been impaired by the active ingredients.
as §3, §4, §6, §7

Echinochloa crus-galli [4] = assay: greenhouse pre-emergence treatment, ECHCG; details: pre-emergence (value labeled *), scale 0-100
From the text: as §1, §8, §3, §4, §5

Agrostis spica-venti = assay: greenhouse pre-emergence treatment, APESV; details: pre-emergence (value labeled *), 500 g/ha; scale 0-100
From the text: as §1, §8, §3, §4, §6, §7

Polygonum convolvulus = assay: greenhouse post-emergence treatment, POLCO; details: 500 g/ha, scale 0-100
From the text: as §1, §2, §3, §4, §6, §7

CSc1c(F)cc(C(=O)Nc2nnnn2C)c(C)c1SC [compound 67]
[%] damage to weed I (ABUTH) (Abutilon theophrasti): 100% | [%] damage to weed VII (ECHCG) (Echinochloa crus-galli [1]; 1000 g/ha): 100%

Cc1c(C(=O)Nc2nnnn2C)cc(F)cc1S(C)(=O)=O [compound 7]
[%] damage to weed VI (CHEAL) (Chenopodium album; 500 g/ha): 100% | [%] damage to weed XI (SETVI) (Setaria viridis; 500 g/ha): 100% | [%] damage to weed III (AMARE) (Amaranthus retroflexus [2]; 500 g/ha): 100%

Cn1nnnc1NC(=O)c1c(F)cc(Cl)c([S+](C)[O-])c1Cl (stereo not drawn) [cpd. 6]
[%] damage to weed VI (CHEAL) (Chenopodium album; 250 g/ha): 100% | [%] damage to weed XI (SETVI) (Setaria viridis; 250 g/ha): 100% | [%] damage to weed II (ALOMY) (Alopecurus agrestis): 100%

Cc1c(C(=O)Nc2nnnn2C)cc(F)c(S(C)(=O)=O)c1S(C)(=O)=O [compound 66]
[%] damage to weed I (ABUTH) (Abutilon theophrasti): 100% | [%] damage to weed VII (ECHCG) (Echinochloa crus-galli [1]; 1000 g/ha): 100% | [%] damage to weed III (AMARE) (Amaranthus retroflexus [2]; 1000 g/ha): 100; % | [%] damage to weed III (AMARE) (Amaranthus retroflexus [3]): 100* %

CCOc1c(Cl)cc(F)c(C(=O)Nc2ncnn2C)c1Cl [compound 17]
[%] damage to weed VI (CHEAL) (Chenopodium album; 500 g/ha): 100% | [%] damage to weed VII (ECHCG) (Echinochloa crus-galli [4]; 500 g/ha): 85* % | [%] damage to weed VII (ECHCG) (Echinochloa crus-galli [1]; 500 g/ha): 98; % | [%] damage to weed III (AMARE) (Amaranthus retroflexus [2]; 500 g/ha): 100%

COCCn1nnnc1NC(=O)c1c(F)cc(Cl)c(S(C)(=O)=O)c1Cl [compound 76]
[%] damage to weed VI (CHEAL) (Chenopodium album; 250 g/ha): 100% | [%] damage to weed VII (ECHCG) (Echinochloa crus-galli [4]; 250 g/ha): 100* % | [%] damage to weed VII (ECHCG) (Echinochloa crus-galli [1]; 250 g/ha): 100; % | [%] damage to weed III (AMARE) (Amaranthus retroflexus [2]; 250 g/ha): 100%

CCS(=O)(=O)c1c(Cl)cc(F)c(C(=O)Nc2ncnn2C)c1Cl [compound 15]
[%] damage to weed VI (CHEAL) (Chenopodium album; 500 g/ha): 100% | [%] damage to weed IV (APESV) (Agrostis spica-venti): 98* % | [%] damage to weed IX (POLCO) (Polygonum convolvulus): 98% | [%] damage to weed III (AMARE) (Amaranthus retroflexus [2]; 500 g/ha): 100%
